Test results taken from BigSolDB 2.1.

C1OCOCO1
solubility (mole fraction)
Conditions | in dimethoxymethane | in ethanol | in isopropanol | in methanol
288.15 K | 0.32 | 0.136 | 0.17 | 0.167
293.15 K | 0.371 | 0.175 | 0.213 | 0.21
297.15 K | 0.416 | – | – | –
298.15 K | – | 0.228 | 0.268 | 0.26
300.15 K | 0.452 | – | – | –
303.15 K | 0.489 | 0.29 | 0.331 | 0.318
306.15 K | 0.527 | – | – | –
308.15 K | – | 0.362 | 0.417 | 0.398
309.15 K | 0.567 | – | – | –
312.15 K | 0.608 | – | – | –
313.15 K | – | 0.457 | 0.511 | 0.517
318.15 K | – | 0.591 | 0.643 | 0.645
321.15 K | – | – | – | 0.8
323.15 K | – | 0.74 | 0.793 | –
328.15 K | – | 0.913 | 0.945 | –
